Assay results: patent publication US20240368106A1, “HYDROXY AND ALKOXY COUMARINS AS MODULATORS OF POLRMT” (Pretzel Therapeutics, Inc., priority 2021, published 2024)

What follows are compounds tested against POLRMT (Homo sapiens (Human), UniProt O00411) (assay: homogeneous TR-FRET assay of mitochondrial transcription (inhibition of POLRMT)). Conditions: 7.5 nM POLRMT, 15 nM TFB2M, 30 nM TFAM, 0.5 nM DNA template, 500 μM NTPs, 37° C., 60 minutes.
POLRMT, sequence (O00411 42-1230): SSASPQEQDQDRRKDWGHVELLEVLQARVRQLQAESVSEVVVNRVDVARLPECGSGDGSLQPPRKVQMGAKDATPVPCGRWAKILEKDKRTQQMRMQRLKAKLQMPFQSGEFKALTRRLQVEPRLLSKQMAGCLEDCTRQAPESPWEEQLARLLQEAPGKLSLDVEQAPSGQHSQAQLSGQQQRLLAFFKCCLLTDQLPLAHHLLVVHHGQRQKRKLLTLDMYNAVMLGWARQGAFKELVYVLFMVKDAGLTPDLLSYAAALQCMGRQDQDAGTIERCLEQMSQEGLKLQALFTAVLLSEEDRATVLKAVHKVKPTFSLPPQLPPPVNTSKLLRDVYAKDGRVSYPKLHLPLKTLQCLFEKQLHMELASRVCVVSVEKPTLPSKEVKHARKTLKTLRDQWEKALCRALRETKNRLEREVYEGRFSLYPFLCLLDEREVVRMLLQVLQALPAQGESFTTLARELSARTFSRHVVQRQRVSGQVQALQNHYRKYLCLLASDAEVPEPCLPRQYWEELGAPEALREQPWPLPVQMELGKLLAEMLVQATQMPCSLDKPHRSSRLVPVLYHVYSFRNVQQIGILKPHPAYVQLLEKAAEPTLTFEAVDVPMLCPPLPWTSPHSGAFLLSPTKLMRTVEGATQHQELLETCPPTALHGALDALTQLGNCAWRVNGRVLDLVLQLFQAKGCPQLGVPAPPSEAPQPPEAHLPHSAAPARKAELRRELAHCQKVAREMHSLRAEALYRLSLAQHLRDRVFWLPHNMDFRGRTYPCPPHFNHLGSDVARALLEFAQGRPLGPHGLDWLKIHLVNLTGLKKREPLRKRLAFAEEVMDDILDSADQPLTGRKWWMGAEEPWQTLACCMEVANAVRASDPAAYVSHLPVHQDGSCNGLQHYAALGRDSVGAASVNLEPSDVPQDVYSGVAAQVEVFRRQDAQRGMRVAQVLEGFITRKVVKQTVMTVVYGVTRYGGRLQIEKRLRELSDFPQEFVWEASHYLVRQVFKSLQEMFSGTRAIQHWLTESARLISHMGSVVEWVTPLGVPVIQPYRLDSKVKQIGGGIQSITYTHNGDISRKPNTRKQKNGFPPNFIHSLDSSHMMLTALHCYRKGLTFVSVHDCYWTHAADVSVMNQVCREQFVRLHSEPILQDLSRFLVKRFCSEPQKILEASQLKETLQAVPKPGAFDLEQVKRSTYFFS
Format: biochemical
Description: The inhibitory activity of the compounds of the present invention against POLRMT were determined by assays based on Bergbrede, T., et al., “An adaptable high-throughput technology enabling the identification of specific transcription modulators,” SLAC Discov., 22, 378-386 (2017).
The ability of some compounds of the present invention to inhibit POLRMT were determined in a homogeneous TR-FRET Assay using high-throughput screening in a 384-well plate format. This method is used to monitor the activity of mitochondrial transcription through measurement of its product, a 407 bp long RNA transcript. Detection of the product is facilitated by hybridization of two DNA-oligonucleotide probes to specific and adjacent sequences within the RNA product sequence. Upon annealing of the probes, two fluorophores are coupled directly to an acceptor nucleotide probe (ATT0647, 5′), or introduced via a coupled streptavidin with a biotinylated donor nucleotide probe (Europium cryptate) that is brought into sufficient proximity to serve as a fluorescence-donor-acceptor pair. Thus, a FRET signal at 665 nm is generated upon excitation at 340 nm.
Proteins used as transcription factors (POLRMT: NP_005026.3, TFAM: NP_003192.1, TFB2M: NP_071761.1) are diluted from their stocks to working concentrations of 1 μM, 20 μM and 4 μM respectively, in a dilution buffer containing 20 mM Tris-HCl (pH 8.0), 200 mM NaCl, 10% (v/v) glycerol, 1 mM Dithiothreitol (DTT), 0.5 mM EDTA.
DNA template is a pUC18 plasmid with the mitochondrial light strand promotor sequence (1-477) cloned between HindIII and BamHI sites. The DNA template is restriction linearized proximal to the promotor 3′-end (pUC-LSP). The reaction mixture (10 uL) containing 7.5 nM POLRMT, 15 nM of TFB2M, 30 nM of TFAM, 0.5 nM of DNA template and 500 μM nucleotide triphosphate mix (NTPs) in a reaction buffer (containing 10 mM Tris-HCl (pH 7.5), 10 mM MgCl2, 40 mM NaCl, 10 mM DTT, 0.005% (w/v) Tween-20, 160 units/ml Rnase inhibitor and 0.1 mg/mL BSA) are dispensed to compounds in microplates, using a Thermo Multidrop® dispenser, and incubated at 37° C. in a VWR INCU-Line incubator for 60 minutes after mixing. No nucleotide triphosphate mix is added to negative control samples. Microplates with compounds to be tested in the assay are prepared from 10 mM compound stocks in 100% DMSO, equal amounts of DMSO without any compound are added to positive control and negative control samples.
During the incubation, a mix of the detection reagents is prepared in a buffer such that the enzymatic reaction is terminated due to chelating of Mg-ions and increased ionic strength, containing 50 mM Tris-HCl (pH 7.5), 700 mM NaCl, 20 mM EDTA, and 0.010% (w/v) Tween-20. Europium-streptavidin is pre-incubated with a 200-fold molar excess of a random sequence oligonucleotide to block unspecific binding of oligo, for two hours at ambient temperature in the dark. Afterwards, the blocked Europium-streptavidin is kept on ice until use.
At the end of the enzymatic reaction time, 5 μL detection oligo mix in the detection buffer is added, and assay plates are mixed and kept at ambient temperature for one hour, protected from light. The concentration of the Acceptor nucleotide oligo (e.g., ATTO647N-5′-[…]-3′) and Donor nucleotide oligo (e.g., bio-5′-AACACATCTCT(-bio)GCCAAACCCCA-bio-3′) in each assay well is 1 nM, and 3 nM, respectively.
After incubation with oligo mix, 5 μL of pre-blocked Europium-streptavidin reagent is dispensed to each assay well, assay plates are again mixed and kept at ambient temperature for one hour, protected from light.
The generated signal is measured with BMG Pherastar microtiter plate reader with a TRF light unit, using excitation at 340 nm, an integration time of 200 μs, and a delay time of 100 μs, before detection at 620 nm and 665 nm. The ratio of donor- and acceptor-fluorescence is used as a measure of the generated transcript product (i.e. enzymatic activity).
With `Cc1ccccc1-c1cc(=O)oc2cc(OC(CO)C(=O)N(C)C)ccc12` (single isomer, unassigned) [Example 79, 3-hydroxy-N,N-dimethyl-2-[4-(o-tolyl)-2-oxo-2H-chromen-7-yl]oxy-propanamide] the IC50 was 32000 nM.
`Cc1ccccc1-c1cc(=O)oc2cc(O[C@@H]3CCN(C)C3)ccc12` [Example 66, (R)-7-((1-methylpyrrolidin-3-yl)oxy)-4-(o-tolyl)-2H-chromen-2-one] was tested, and the IC50 was 42000 nM.
`COCC(Oc1ccc2c(-c3ccc(F)cc3Cl)cc(=O)oc2c1)C(=O)O` (stereo not drawn) [Example 73, 2-((4-(2-chloro-4-fluorophenyl)-2-oxo-2H-chromen-7-yl)oxy)-3-methoxypropanoic acid] gave an IC50 of 3000 nM.
Compound `COCC(Oc1ccc2c(-c3ccccc3C)cc(=O)oc2c1)C(=O)NCC(F)(F)F` (single isomer, unassigned) [Example 83, 3-methoxy-2-((2-oxo-4-(o-tolyl)-2H-chromen-7-yl)oxy)-N-(2,2,2-trifluoroethyl)propanamide] has an IC50 of 200 nM.
`Cc1ccccc1-c1cc(=O)oc2cc(OCCO)ccc12` [Example 03, 7-(2-hydroxyethoxy)-4-(o-tolyl)-2H-chromen-2-one] was tested, and the IC50 was 2000 nM.
In the case of `Cc1ccccc1-c1cc(=O)oc2cc(OCC(N)=O)ccc12` [Example 108, 2-((2-oxo-4-(o-tolyl)-2H-chromen-7-yl)oxy)acetamide], the IC50 is reported as 200 nM.
`COCC(Oc1ccc2c(-c3ccc(F)cc3Cl)cc(=O)oc2c1)C(=O)OC` (stereo not drawn) [Example 14, methyl 2-((4-(2-chloro-4-fluorophenyl)-2-oxo-2H-chromen-7-yl)oxy)-3-methoxypropanoate] showed an IC50 of 200 nM.
Work on `COC[C@@H](Oc1ccc2c(-c3ccccc3C)cc(=O)oc2c1)C(N)=O` [Example 68, (R)-3-methoxy-2-((2-oxo-4-(o-tolyl)-2H-chromen-7-yl)oxy)propenamide] yielded an IC50 of 700 nM.
`COC[C@H](Oc1ccc2c(-c3ccccc3C)cc(=O)oc2c1)C(=O)N(C)C` [Example 72, (S)-3-methoxy-N,N-dimethyl-2-((2-oxo-4-(o-tolyl)-2H-chromen-7-yl)oxy)propenamide] showed an IC50 of 10000 nM.
Work on `COCC(Oc1ccc2c(-c3ccccc3Cl)cc(=O)oc2c1)C(=O)N(C)C` (single isomer, unassigned) [Example 94, 2-((4-(2-chlorophenyl)-2-oxo-2H-chromen-7-yl)oxy)-3-methoxy-N,N-dimethylpropanamide] yielded an IC50 of 90 nM.
Compound `Cc1ccccc1-c1cc(=O)oc2cc(OCC3CCCCO3)ccc12` (single isomer, unassigned) [Example 39, 7-((tetrahydro-2H-pyran-2-yl)methoxy)-4-(o-tolyl)-2H-chromen-2-one] has an IC50 of 900 nM.
`COCC(Oc1ccc2c(-c3ccc(F)cc3Cl)cc(=O)oc2c1)C(N)=O` (single isomer, unassigned) [Example 75, 2-((4-(2-chloro-4-fluorophenyl)-2-oxo-2H-chromen-7-yl)oxy)-3-methoxypropanamide] showed an IC50 of 2000 nM.
Work on `CC(=O)N1CC[C@H](Oc2ccc3c(-c4ccccc4C)cc(=O)oc3c2)C1` [Example 61, (S)-7-((1-acetylpyrrolidin-3-yl)oxy)-4-(o-tolyl)-2H-chromen-2-one] yielded an IC50 of 28000 nM.
For `CNC(=O)[C@@H](COC)Oc1ccc2c(-c3ccccc3C)cc(=O)oc2c1` [Example 70, (R)-3-methoxy-N-methyl-2-((2-oxo-4-(o-tolyl)-2H-chromen-7-yl)oxy)propenamide], the IC50 was 900 nM.
`Cc1ccccc1-c1cc(=O)oc2cc(OCC3CCOCC3)ccc12` [Example 29, 7-((tetrahydro-2H-pyran-4-yl)methoxy)-4-(o-tolyl)-2H-chromen-2-one] was tested, and the IC50 was 1000 nM.
`CCCOc1ccc2c(-c3cccnc3C)cc(=O)oc2c1` [Example 53, 4-(2-methylpyridin-3-yl)-7-propoxy-2H-chromen-2-one] was tested, and the IC50 was 800 nM.
`COCCOc1ccc2c(-c3ccccc3C)cc(=O)oc2c1` [Example 09, 7-(2-methoxyethoxy)-4-(o-tolyl)-2H-chromen-2-one] showed an IC50 of 900 nM.
Compound `Cc1ccccc1-c1cc(=O)oc2cc(OC3CCCOC3)ccc12` (single isomer, unassigned) [Example 48, 7-((tetrahydro-2H-pyran-3-yl)oxy)-4-(o-tolyl)-2H-chromen-2-one] has an IC50 of 3000 nM.
For `Cc1ccccc1-c1cc(=O)oc2cc(OC(C)C)ccc12` [Example 05, 7-isopropoxy-4-(o-tolyl)-2H-chromen-2-one], the IC50 was 100 nM.
`CCCOc1ccc2c(-c3ccccc3C(F)(F)F)cc(=O)oc2c1` [Example 30, 7-propoxy-4-(2-(trifluoromethyl)phenyl)-2H-chromen-2-one] was tested, and the IC50 was 1000 nM.
In the case of `CCCOc1ccc2c(-c3cnc(Cl)cc3C)cc(=O)oc2c1` [Example 55, 4-(6-chloro-4-methylpyridin-3-yl)-7-propoxy-2H-chromen-2-one], the IC50 is reported as 5000 nM.
With `CCCOc1ccc2c(-c3cnccc3C(F)(F)F)cc(=O)oc2c1` [Example 32, 7-propoxy-4-(4-(trifluoromethyl)pyridin-3-yl)-2H-chromen-2-one] the IC50 was 23000 nM.
In the case of `Cc1cc(OC(C)C)cc2oc(=O)cc(-c3ccccc3)c12` [Example 23, 7-isopropoxy-5-methyl-4-phenyl-2H-chromen-2-one], the IC50 is reported as 87000 nM.
With `COCC(Oc1ccc2c(-c3ccc(F)cc3Cl)cc(=O)oc2c1)C(N)=O` (single isomer, unassigned) [Example 74, 2-((4-(2-chloro-4-fluorophenyl)-2-oxo-2H-chromen-7-yl)oxy)-3-methoxypropanamide] the IC50 was 13000 nM.
For `CCCOc1ccc2c(-c3ccccc3C)cc(=O)oc2c1` [Example 02, 7-propoxy-4-(o-tolyl)-2H-chromen-2-one], the IC50 was 90 nM.
In the case of `Cc1cc(OCC(C)C)cc2oc(=O)cc(-c3ccccc3)c12` [Example 24, 7-isobutoxy-5-methyl-4-phenyl-2H-chromen-2-one], the IC50 is reported as 93000 nM.
`Cc1ccccc1-c1cc(=O)oc2cc(OC(C)C)cc(C)c12` [Example 58, 7-isopropoxy-5-methyl-4-(o-tolyl)-2H-chromen-2-one] was tested, and the IC50 was 400 nM.
For `CCOCC(Oc1ccc2c(-c3ccccc3C)cc(=O)oc2c1)C(N)=O` (stereo not drawn) [Example 100], the IC50 was 900 nM.
Compound `Cc1ccccc1-c1cc(=O)oc2cc(OCC3CCCCO3)ccc12` (single isomer, unassigned) [Example 40, 7-((tetrahydro-2H-pyran-2-yl)methoxy)-4-(o-tolyl)-2H-chromen-2-one] has an IC50 of 3000 nM.
In the case of `Cc1ccccc1-c1cc(=O)oc2cc(OC(C)C#N)ccc12` (single isomer, unassigned) [Example 42, 2-((2-oxo-4-(o-tolyl)-2H-chromen-7-yl)oxy)propanenitrile], the IC50 is reported as 50 nM.
`COCC(Oc1ccc2c(-c3ccc(F)cc3Cl)cc(=O)oc2c1)C(=O)N(C)C` (single isomer, unassigned) [Example 85, 2-((4-(2-chloro-4-fluorophenyl)-2-oxo-2H-chromen-7-yl)oxy)-3-methoxy-N,N-dimethylpropanamide] was tested, and the IC50 was 200 nM.
In the case of `CCCOc1ccc2c(-c3ccccc3)cc(=O)oc2c1` [Example 113, 4-phenyl-7-propoxy-2H-chromen-2-one], the IC50 is reported as 4000 nM.
`COCCNC(=O)C(COC)Oc1ccc2c(-c3ccccc3C)cc(=O)oc2c1` (single isomer, unassigned) [Example 88, 3-methoxy-N-(2-methoxyethyl)-2-((2-oxo-4-(o-tolyl)-2H-chromen-7-yl)oxy)propanamide] gave an IC50 of 500 nM.
